Measured values as given in US20220169632A1, “METHODS AND MATERIALS FOR INCREASING OR MAINTAINING NICOTINAMIDE MONONUCLEOTIDE ADENYLYL TRANSFERASE-2 (NMNAT2) POLYPEPTIDE LEVELS” (University of Pittsburgh - Of the Commonwealth System of …, priority 2019, published 2022).

System: NMNAT2
Experiment: NMNAT2-Hibit nano-luciferase activity in transfected U87MG cells, 25 μM, 24 hours
Assay type: cell-based
Conditions: NMNAT2-Hibit luc plasmid, 24 hours (Table B)
Method: Selected compounds were tested in vitro. Briefly, U87MG cells were transfected with NMNAT2-Hibit luc plasmid. Cells were treated with a test compound at 25 μM for 24 hours. Cells were then collected and assayed for nano-luciferase activity.

| Structure (SMILES) | B: compound efficacy (IC50) for NMNAT2 activation; increase in NMNAT2 luciferase activity |
| --- | --- |
| Cc1ccc2onc(CNC(=O)NCc3cccc(Cl)c3)c2c1 [Compound 181077] | ++ (“++” >20% and <100% increase in NMNAT2 luciferase activity.) |
| COc1ccc(NC(=O)NCc2noc3ccc(C)cc23)cc1 [Compound 181078] | + (“+” <20% increase in NMNAT2 luciferase activity.) |
| Cc1ccc2onc(CNC(=O)Nc3ccccc3Cl)c2c1 [Compound 181079] | + (“+” <20% increase in NMNAT2 luciferase activity.) |
| Cc1ccc2onc(CNC(=O)Nc3ccc(Cl)cc3)c2c1 [Compound 181080] | + (“+” <20% increase in NMNAT2 luciferase activity.) |
| Cc1ccc2onc(CNC(=O)NCc3ccccc3Cl)c2c1 [Compound 181081] | + (“+” <20% increase in NMNAT2 luciferase activity.) |
| Cc1ccc2onc(CNC(=O)NCc3ccc(Cl)cc3)c2c1 [Compound 181082] | ++ (“++” >20% and <100% increase in NMNAT2 luciferase activity.) |
| Cc1ccc(CCNC(=O)NCc2noc3ccc(C)cc23)cc1 [Compound 181083] | ++ (“++” >20% and <100% increase in NMNAT2 luciferase activity.) |
| CC(=O)c1cccc(NC(=O)NCc2noc3ccc(C)cc23)c1 [Compound 181084] | + (“+” <20% increase in NMNAT2 luciferase activity.) |
| Cc1ccc2onc(CNC(=O)NC3CCCCC3C)c2c1 (stereo not drawn) [Compound 181085] | + (“+” <20% increase in NMNAT2 luciferase activity.) |
| Cc1ccc2onc(CNC(=O)NCCc3c[nH]c4ccccc34)c2c1 [Compound 181086] | ++ (“++” >20% and <100% increase in NMNAT2 luciferase activity.) |
| Cc1ccc2onc(CNC(=O)N(C)c3ccc(F)cc3)c2c1 [Compound 181087] | + (“+” <20% increase in NMNAT2 luciferase activity.) |
| CCOc1ccc(CCNC(=O)NCc2noc3ccc(C)cc23)cc1 [Compound 181088] | + (“+” <20% increase in NMNAT2 luciferase activity.) |
| CSc1ccc(CCNC(=O)NCc2noc3ccc(C)cc23)cc1 [Compound 181089] | ++ (“++” >20% and <100% increase in NMNAT2 luciferase activity.) |
| Cc1ccc2onc(CNC(=O)NC(C)c3ccccc3)c2c1 (stereo not drawn) [Compound 181090] | + (“+” <20% increase in NMNAT2 luciferase activity.) |
| Cc1cc(C)cc(NC(=O)NCc2noc3ccc(C)cc23)c1 [Compound 181091] | + (“+” <20% increase in NMNAT2 luciferase activity.) |
| Cc1ccc2onc(CNC(=O)NCc3ccccc3)c2c1 [Compound 181092] | + (“+” <20% increase in NMNAT2 luciferase activity.) |

Same assay, conditions: NMNAT2-Hibit luc plasmid, 24 hours (Table C)

| Structure (SMILES) | C: Compound efficacy for NMNAT2 activation; increase in NMNAT2 luciferase activity |
| --- | --- |
| O=C(Cn1cc(C(=O)C(F)(F)F)c2ccccc21)NCc1ccco1 [Compound 181101] | + (“+” <20% increase in NMNAT2 luciferase activity.) |
| CCc1cccc2c(C(=O)C(F)(F)F)cn(CC(=O)NCc3ccco3)c12 [Compound 181102] | + (“+” <20% increase in NMNAT2 luciferase activity.) |
| O=C(Cn1cc(C(=O)C(F)(F)F)c2cc(Br)ccc21)NCc1ccco1 [Compound 181103] | + (“+” <20% increase in NMNAT2 luciferase activity.) |
| O=C(CN1C(=O)c2cccc3cccc1c23)NCc1ccco1 [Compound 181104] | + (“+” <20% increase in NMNAT2 luciferase activity.) |
| O=C(Cn1cc(C(=O)C2CC2)c2ccccc21)NCc1ccco1 [Compound 181105] | + (“+” <20% increase in NMNAT2 luciferase activity.) |
| O=C(Cn1cc(C(=O)c2ccccc2)c2ccccc21)NCc1ccco1 [Compound 181106] | +++ (“+++” >100% increase in NMNAT2 luciferase activity.) |
| O=C(Cn1cc(C(=O)C2CCCCC2)c2ccccc21)NCc1ccco1 [Compound 181107] | +++ (“+++” >100% increase in NMNAT2 luciferase activity.) |
| CCC(=O)c1cn(CC(=O)NCc2ccco2)c2ccccc12 [Compound 181108] | + (“+” <20% increase in NMNAT2 luciferase activity.) |
| CC(=O)c1c(C)n(CC(=O)NCc2ccco2)c2ccccc12 [Compound 181109] | + (“+” <20% increase in NMNAT2 luciferase activity.) |
| Cc1c(C=O)c2ccccc2n1CC(=O)NCc1ccco1 [Compound 181110] | + (“+” <20% increase in NMNAT2 luciferase activity.) |
| Cc1cc2ccccc2c(=O)n1CC(=O)NCc1ccco1 [Compound 181112] | + (“+” <20% increase in NMNAT2 luciferase activity.) |
| Cc1ccc2c(c1)n(CC(=O)NCc1ccco1)c(=O)c1cccn12 [Compound 181113] | + (“+” <20% increase in NMNAT2 luciferase activity.) |
| Cc1ccc(Cn2cc(CCCC(=O)NCc3ccco3)c3ccccc32)cc1 [Compound 181114] | +++ (“+++” >100% increase in NMNAT2 luciferase activity.) |
| CCn1cc(CCC(=O)NCc2ccco2)c2ccccc21 [Compound 181115] | + (“+” <20% increase in NMNAT2 luciferase activity.) |
| Cc1ccc(Cn2cc(CCC(=O)NCc3ccco3)c3ccccc32)cc1 [Compound 181116] | ++ (“++” >20% and <100% increase in NMNAT2 luciferase activity.) |
| O=C(CCc1cn(Cc2ccccc2F)c2ccccc12)NCc1ccco1 [Compound 181117] | + (“+” <20% increase in NMNAT2 luciferase activity.) |
| O=C(Cn1c(-c2cccs2)cc2cc(F)ccc21)NCc1ccco1 [Compound 181118] | + (“+” <20% increase in NMNAT2 luciferase activity.) |
| Cc1ccc(CNC(=O)Cn2c(-c3cccs3)cc3cc(F)ccc32)o1 [Compound 181119] | + (“+” <20% increase in NMNAT2 luciferase activity.) |
| Cc1cc(C)n(CC(=O)NCc2ccccc2)c(=O)c1C#N [Compound 181120] | + (“+” <20% increase in NMNAT2 luciferase activity.) |
| Cc1ccc(CNC(=O)Cn2c(C)cc(C)c(C#N)c2=O)cc1 [Compound 181121] | + (“+” <20% increase in NMNAT2 luciferase activity.) |
| Cc1cc(C)n(CC(=O)NCc2ccc(Cl)cc2)c(=O)c1C#N [Compound 181122] | + (“+” <20% increase in NMNAT2 luciferase activity.) |
| Cc1cc(C)n(CC(=O)NCc2ccc(F)cc2)c(=O)c1C#N [Compound 181123] | + (“+” <20% increase in NMNAT2 luciferase activity.) |
| COc1ccc(CNC(=O)Cn2c(C)cc(C)c(C#N)c2=O)cc1 [Compound 181124] | + (“+” <20% increase in NMNAT2 luciferase activity.) |
